We go through four compounds from paper PMC3928794 (Chemistry & biodiversity, 2013).

Common to all, as to assay type: cell-based
Assay [1] has as its system A2780 human ovarian cancer cell line. As to the kind of experiment: Antiproliferative bioassay, A2780 ovarian cancer cell line. Conditions: for IC50: read-out: IC50 (μM) A2780, A2780 ovarian cancer cells, mean of three replicates.
In a further assay the test system is A2058 melanoma cell line. As to the kind of experiment: Antiproliferative bioassay, A2058 melanoma cell line.
The test system of assay [2] is H522 lung cancer cell line. The experiment in a line: Antiproliferative bioassay, H522 lung cancer cell line.
[3] abbreviates: read-out: IC50 (μM) H522, H522 lung cancer cells.

Read-outs that look alike come from different tables or passages of the source.

As for “oleanolic acid-3-O-β-D-glucopyranosyl- (1→3)-β-D-glucopyranoside [Compound 1]”, the half-maximal inhibitory concentration (IC50) (usually the concentration needed to halve the response being measured) was 2.2 ± 0.2 µM in assay [1]; 7.63 µM in the assay on A2058 melanoma cell line (read-out: IC50 (μM) A2058, A2058 melanoma cells); 7.32 µM in assay [2] (setting [3]).

For `CC[C@]1(O)C[C@@H]2CN(CCc3c([nH]c4ccccc34)[C@@](C(=O)OC)(c3cc4c(cc3OC)N(C)[C@H]3[C@@](O)(C(=O)OC)[C@H](OC(C)=O)[C@]5(CC)C=CCN6CC[C@]43[C@@H]65)C2)C1` [Vinblastine, reference compound], the IC50 in the assay on A2058 melanoma cell line (Homo sapiens, A2058, read-out: IC50 (μM) A2058) turned out to be 0.004 µM; in assay [2] (Homo sapiens, NCI-H522, read-out: IC50 (μM) H522), 0.009 µM.

For “oleanolic acid-3-O-β-D-glucopyranosyl-(1→3)-(2″-O-acetyl)-β-D-glucopyranoside [Compound 2]”, in assay [1], the “inhibition of the proliferation of A2780 cells (in words)” value is “selectively inhibit the proliferation of A2780 ovarian cancer cells” and the IC50 stood at 1.7 ± 0.1 µM. Besides, the half-inhibitory concentration (IC50) in assay [2] (setting [3]) is more than 10 µM.

Turning to `CC(=O)OC[C@H]1O[C@@H](O[C@H]2CC[C@]3(C)[C@H]4CC=C5[C@@H]6CC(C)(C)CC[C@]6(C(=O)O)CC[C@@]5(C)[C@]4(C)CC[C@H]3C2(C)C)[C@H](O)[C@@H](O[C@@H]2O[C@H](CO)[C@@H](O)[C@H](O)[C@H]2O)[C@@H]1O` [Compound 3, oleanolic acid-3-O-β-D-glucopyranosyl-(1→3)-(6″-O-acetyl)-β-D-glucopyranoside], in assay [1], the “inhibition of the proliferation of A2780 cells (in words)” value is “selectively inhibit the proliferation of A2780 ovarian cancer cells” and the IC50 worked out at 1.2 ± 0.3 µM. Further, in assay [2] (setting [3]), the IC50 is more than 10 µM.
